Values after ≈ are worked out from the molar mass of the structure shown.
Columns and labels:
Jurkat cells = assay: Suppression of Fas antibody-induced apoptosis, survival rate by MTT method; assay type: cell-based; settings: Homo sapiens, Fas antibody CH-11 100 ng/ml, 6 hours, read-out: concentration that inhibited 50% of apoptosis induced by Fas antibody
Procedure: Jurkat cells, an […] T cell leukemia cell line expressing Fas, were used as Fas antibody sensitive cells. The Jurkat cells were cultured in a RPMI medium containing 10% calf serum in an incubator that contained 5% carbon dioxide and was saturated with stream. The Jurkat cells in the logarithmic proliferation period were added with RKB-3564A, RKB-3564B, RKB-3564D, RKB-3564E, and RKB-3564F in a series of dilution, and cultured in the presence of Fas antibody, CH-11 (Medical & Biological Laboratories Co., Ltd., 100 ng/ml) for 6 hours, and the survival rate of the cells was assayed by the MTT method. The survival rate was calculated according to the following formula. Survival rate (%)={[(absorbance in the presence of anti-Fas antibody and the compound)−(absorbance in the presence of anti-Fas antibody and in the absence of the compound)]/[(absorbance in the absence of anti-Fas antibody and the compound)−(absorbance in the presence of anti-Fas antibody and in the absence of the compound)]}×100

Row | Solubility in methanol or dimethyl sulfoxide (Solubility in solvents; methanol or dimethyl sulfoxide) | Solubility in n-hexane (Solubility in solvents; n-hexane) | SMILES | IC50 (Jurkat cells) [µg/mL]
1 |  |  | CC1OC2C3=C(C(=O)C4OC4C3O)C1C1C(C)OC=C3C(O)C4OC4C(=O)C321 (centres unmarked) [RKB-3564E] | 3 to 10 (≈ 7.72 to 25.7 µM)
2 |  |  | CC1OC2C3=C(C(=O)C4OC4C3O)C1C1C(C)OC=C3C(O)C4OC4C(=O)C321 (single isomer, unassigned) [RKB-3564A] | 3 to 10 (≈ 7.72 to 25.7 µM)
3 | easily soluble | Insoluble | CC1OC2C3=C(C(=O)C4OC4C3O)C1C1C3=C(C(O)C4OC4C3=O)C2OC1C (centres unmarked) [RKB-3564D] | 3 to 10 (≈ 7.72 to 25.7 µM)

Source: patent US7094802B2, “PKB-3564 substance with neovascularization inhibitory activity” (Riken, priority 2001, dated 2006)
